Assay results taken from article PMC12655527, “An Investigational Study on the Role of ADME Agents’ Genetic Variation on DD217 Pharmacokinetics and Safety Profile” (Pharmaceuticals, 2025).

Test system: patients undergoing knee replacement surgery
Experiment: Thromboembolic complications (DVT/PE) during 14-day therapy, phase II trial
Type: in vivo, human
Settings: for With DVT/PE / Without DVT/PE: 40 mg/day, number of patients; for cases of DVT/PE / PE/DVT, n (safety outcomes): 14 days
Description: The design, eligibility criteria, and outcomes of the phase II clinical trial evaluating the safety and tolerability of DD217 (NCT05189002, ClinicalTrials.gov) have been described previously. Briefly, this was a multicenter, double-blind, randomized, prospective phase II study designed to determine the optimal dosing regimen and to assess the safety and efficacy of DD217 for the prevention of venous thromboembolism (VTE) in patients undergoing knee replacement surgery. Patients were randomized into one of three groups: two groups received oral DD217 at doses of 40 mg or 60 mg once daily, starting on the morning of the first postoperative day, and one group received the active comparator, dalteparin sodium. The treatment duration was 14 days.
In total, seven cases of DVT/PE were documented during the trial: four in the DD217 40 mg/day group, one in the DD217 60 mg/day group, and two in the dalteparin sodium group. In addition, two bleeding events were recorded: one clinically relevant non-major bleed in the DD217 60 mg/day group and one clinically non-relevant minor bleed in the dalteparin sodium group.

SMILES: CC(=N)N(C)c1ccc(C(=O)Nc2ccc(C)cc2C(=O)Nc2ccc(Cl)cn2)cc1.Cl [DD217, N-(5-chloropyridin-2-yl)-5-methyl-2-[4-(N-methylacetimidamido)benzamido]benzamide hydrochloride]
- With DVT/PE (ABCB1 rs1045642 C/C (n 5)): 3
- Without DVT/PE (ABCB1 rs1045642 C/C (n 5)): 2
- With DVT/PE (ABCB1 rs1045642 T/C (n 7)): 1
- Without DVT/PE (ABCB1 rs1045642 T/C (n 7)): 6
- With DVT/PE (ABCB1 rs1045642 T/T (n 4)): 0
- Without DVT/PE (ABCB1 rs1045642 T/T (n 4)): 4
- With DVT/PE (ABCB1 rs1128503 C/C (n 8)): 3
- Without DVT/PE (ABCB1 rs1128503 C/C (n 8)): 5
- With DVT/PE (ABCB1 rs1128503 C/T (n 6)): 1
- Without DVT/PE (ABCB1 rs1128503 C/T (n 6)): 5
- With DVT/PE (ABCB1 rs1128503 T/T (n 2)): 0
- Without DVT/PE (ABCB1 rs1128503 T/T (n 2)): 2
- With DVT/PE (ABCB1 rs2032582 G/G (n 8)): 3
- Without DVT/PE (ABCB1 rs2032582 G/G (n 8)): 5
- With DVT/PE (ABCB1 rs2032582 G/T (n 6)): 1
- Without DVT/PE (ABCB1 rs2032582 G/T (n 6)): 5
- With DVT/PE (ABCB1 rs2032582 T/T (n 2)): 0
- Without DVT/PE (ABCB1 rs2032582 T/T (n 2)): 2
- With DVT/PE (ABCB1 rs4148738 C/C (n 2)): 0
- Without DVT/PE (ABCB1 rs4148738 C/C (n 2)): 2
- With DVT/PE (ABCB1 rs4148738 T/C (n 6)): 1
- Without DVT/PE (ABCB1 rs4148738 T/C (n 6)): 5
- With DVT/PE (ABCB1 rs4148738 T/T (n 8)): 3
- Without DVT/PE (ABCB1 rs4148738 T/T (n 8)): 5
- cases of DVT/PE (DD217 40 mg/day group (n = 16)): four
- PE/DVT, n (safety outcomes) (DD217 40 mg/day oral, of 16 patients): 4 n
- cases of DVT/PE (DD217 60 mg/day group (n = 18)): one
- PE/DVT, n (safety outcomes) (DD217 60 mg/day oral, of 18 patients): 1 n
